Measurements taken from BindingDB's records for doi:10.1007/s00044-013-0847-2 (n/a, 2013).

What was measured:
Acetylcholinesterase = Acetylcholinesterase (Homo sapiens, UniProt P22303); assay: Inhibition of AChE (unknown origin) using acetyl thiocholine iodide as substrate after 30 mins by Ellman's method
Cholinesterase = Cholinesterase (Homo sapiens, UniProt P06276); assay: Inhibition of BChE (unknown origin) using butyryl thiocholine iodide as substrate after 30 mins by Ellman's method
Sequence of Cholinesterase (P06276 whole entry): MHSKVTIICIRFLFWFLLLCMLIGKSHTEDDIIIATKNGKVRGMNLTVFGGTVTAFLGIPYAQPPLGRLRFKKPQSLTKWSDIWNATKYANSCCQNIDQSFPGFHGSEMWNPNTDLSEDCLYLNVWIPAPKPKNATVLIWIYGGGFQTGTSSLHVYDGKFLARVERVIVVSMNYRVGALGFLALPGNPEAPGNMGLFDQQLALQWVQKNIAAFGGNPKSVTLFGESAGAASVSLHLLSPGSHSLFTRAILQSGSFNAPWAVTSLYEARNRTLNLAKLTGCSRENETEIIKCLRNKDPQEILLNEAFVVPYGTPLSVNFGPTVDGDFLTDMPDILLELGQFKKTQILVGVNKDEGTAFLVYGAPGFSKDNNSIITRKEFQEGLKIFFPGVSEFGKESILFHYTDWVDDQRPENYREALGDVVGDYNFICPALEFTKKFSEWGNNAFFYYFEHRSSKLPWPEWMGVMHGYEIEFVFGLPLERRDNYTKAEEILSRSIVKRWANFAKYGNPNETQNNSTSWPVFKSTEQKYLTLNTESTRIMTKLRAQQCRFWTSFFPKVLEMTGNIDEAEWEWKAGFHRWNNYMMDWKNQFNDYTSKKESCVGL

Sequence of Acetylcholinesterase (P22303 whole entry): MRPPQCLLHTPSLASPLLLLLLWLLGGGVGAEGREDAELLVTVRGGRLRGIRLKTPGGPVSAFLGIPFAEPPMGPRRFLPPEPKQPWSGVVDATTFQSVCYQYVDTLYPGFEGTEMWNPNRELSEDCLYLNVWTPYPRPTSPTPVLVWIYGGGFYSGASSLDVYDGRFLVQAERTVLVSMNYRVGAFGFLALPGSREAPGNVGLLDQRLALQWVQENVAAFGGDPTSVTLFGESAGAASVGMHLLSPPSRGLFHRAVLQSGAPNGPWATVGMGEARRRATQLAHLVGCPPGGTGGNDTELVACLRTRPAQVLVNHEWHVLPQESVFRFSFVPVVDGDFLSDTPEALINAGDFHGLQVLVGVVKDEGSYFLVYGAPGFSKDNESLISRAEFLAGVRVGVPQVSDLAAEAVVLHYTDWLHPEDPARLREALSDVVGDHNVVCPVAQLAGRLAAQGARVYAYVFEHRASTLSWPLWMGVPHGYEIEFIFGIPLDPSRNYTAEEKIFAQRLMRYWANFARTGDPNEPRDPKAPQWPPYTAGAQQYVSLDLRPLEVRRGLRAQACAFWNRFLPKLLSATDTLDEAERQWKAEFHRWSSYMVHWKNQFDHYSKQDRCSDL

SMILES	IC50 (Acetylcholinesterase) [µM]	IC50 (Cholinesterase) [µM]
O=C1NC(=O)C(=CNNC(=S)Nc2cccc(C(F)(F)F)c2)C(=O)N1	40.7	136
O=C1NC(=S)NC(=O)C1=CNNC(=S)Nc1ccc(Cl)cc1	121	75.4
O=C1NC(=S)NC(=O)C1=CNNC(=S)Nc1ccccc1	115	57.1
NC(=S)NNC=C1C(=O)NC(=O)NC1=O	119	56.5
CC(=O)NC=C1C(=O)NC(=O)NC1=O	90.9	116
O=C1NC(=S)NC(=O)C1=CNNC(=S)Nc1ccc(C(F)(F)F)cc1	99.4	8.1
O=C(NNC=C1C(=O)NC(=S)NC1=O)Nc1ccccc1	74.2	3.31
COc1ccc(NC(=S)NNC=C2C(=O)NC(=S)NC2=O)cc1	206	56.8
O=C1NC(=S)NC(=O)C1=CNNC(=S)Nc1ccc(Br)cc1	79.2	68.4
N#Cc1ccc(NC(=S)NNC=C2C(=O)NC(=O)NC2=O)cc1		231
O=C1NC(=S)NC(=O)C1=CNNC(=S)Nc1ccc(F)cc1	78.4	57.8
Cc1cccc(Cl)c1NC(=S)NNC=C1C(=O)NC(=O)NC1=O		8.81
O=C1NC(=O)C(=CNNC(=O)Nc2ccccc2)C(=O)N1		38.5
